IC50 data for 15 compounds are collected here from patent US7074789B2, “Kinase inhibitors” (Amgen Inc., priority 1999, dated 2006).

Assay type in all cases: biochemical
One test has as its target T1, Lck (Homo sapiens, UniProt P06239).
T1 construct: Kinases are expressed as either kinase domains or full length constructs; made in house
Kind of test: Kinase inhibition assay (33P transfer), Lck. As to conditions: read-out: Lck-1. The procedure, abridged: (§1)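 Steps: express kinase as GST or polyHistidine fusion in E. coli or High Five cells; optionally co-express or mix with regulatory polypeptides; incubate with 33P-ATP and plate-attached poly(Glu,Tyr) 4:1 or poly(Arg,Ser) 3:1; wash with 0.5% phosphoric acid; count by liquid scintillation.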

Another test has as its target T2, Zap-70 (Homo sapiens, UniProt P43403).
T2 construct: Kinases are expressed as either kinase domains or full length constructs; made in house
T2 sequence (P43403 1-619): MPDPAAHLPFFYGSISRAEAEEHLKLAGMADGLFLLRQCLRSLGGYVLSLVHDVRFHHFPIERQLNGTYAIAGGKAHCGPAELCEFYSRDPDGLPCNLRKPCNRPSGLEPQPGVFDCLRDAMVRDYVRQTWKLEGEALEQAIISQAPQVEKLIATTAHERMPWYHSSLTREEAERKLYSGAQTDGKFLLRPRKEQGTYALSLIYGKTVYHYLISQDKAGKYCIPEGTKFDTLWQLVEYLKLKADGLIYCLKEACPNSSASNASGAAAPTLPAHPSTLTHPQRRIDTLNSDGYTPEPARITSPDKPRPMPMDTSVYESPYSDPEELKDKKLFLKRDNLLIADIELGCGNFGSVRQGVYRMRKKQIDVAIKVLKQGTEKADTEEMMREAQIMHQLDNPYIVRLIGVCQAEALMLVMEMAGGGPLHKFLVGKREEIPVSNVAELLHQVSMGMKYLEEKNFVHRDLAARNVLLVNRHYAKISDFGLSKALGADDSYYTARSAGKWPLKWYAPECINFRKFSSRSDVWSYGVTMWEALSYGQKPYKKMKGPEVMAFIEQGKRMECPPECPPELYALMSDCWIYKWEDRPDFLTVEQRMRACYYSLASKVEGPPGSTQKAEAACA
Kind of test: Kinase inhibition assay (33P transfer), Zap-70. The following applies: read-out: Zap-1. An outline of the steps:
as §1

The next test deals with T3, Itk (Homo sapiens, UniProt Q08881).
T3 construct: Kinases are expressed as either kinase domains or full length constructs; made in house
T3 sequence (Q08881 1-620): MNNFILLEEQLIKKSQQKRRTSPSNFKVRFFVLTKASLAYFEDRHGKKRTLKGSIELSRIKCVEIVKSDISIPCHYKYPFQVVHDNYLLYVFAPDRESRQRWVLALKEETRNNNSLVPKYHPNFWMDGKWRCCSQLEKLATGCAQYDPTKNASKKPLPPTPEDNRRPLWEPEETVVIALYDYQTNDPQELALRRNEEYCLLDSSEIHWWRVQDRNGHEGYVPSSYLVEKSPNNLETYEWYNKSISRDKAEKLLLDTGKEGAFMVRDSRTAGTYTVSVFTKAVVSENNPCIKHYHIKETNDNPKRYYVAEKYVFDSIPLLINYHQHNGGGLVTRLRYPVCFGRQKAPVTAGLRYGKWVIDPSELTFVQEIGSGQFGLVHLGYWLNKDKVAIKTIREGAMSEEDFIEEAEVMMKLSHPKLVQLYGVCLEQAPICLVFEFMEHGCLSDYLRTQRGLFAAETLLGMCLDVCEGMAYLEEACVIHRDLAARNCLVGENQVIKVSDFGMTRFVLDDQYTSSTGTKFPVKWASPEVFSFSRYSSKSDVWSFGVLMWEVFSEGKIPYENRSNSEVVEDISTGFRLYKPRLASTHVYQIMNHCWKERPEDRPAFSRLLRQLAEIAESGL
In words: Kinase inhibition assay (33P transfer), Itk. As to conditions: read-out: Itk-1. The procedure, abridged:
(§2)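 IC50: inhibitor concentration lowering 33P incorporation into immobilised substrate by 50%. Label transferred from ATP to poly(Glu,Tyr) 4:1 or poly(Arg,Ser) 3:1 is measured after a 0.5% phosphoric acid wash by liquid scintillation.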

For the next test, the target named is T4, EGFR (Homo sapiens, UniProt P00533).
T4 construct: Kinases are expressed as either kinase domains or full length constructs; made in house
In words: Kinase inhibition assay (33P transfer), EGFR. As to conditions: Table 2, kinase inhibition class; read-out: EGFR-1. An outline of the steps:
as §2

In the next test the target is T5, Kdr (Homo sapiens, UniProt P35968).
T5 construct: Kinases are expressed as either kinase domains or full length constructs; made in house
In words: Kinase inhibition assay (33P transfer), Kdr. As to conditions: read-out: KDR-1. The procedure, abridged:
as §1

The target of another test is T6, Tek (Homo sapiens, UniProt Q02763).
T6 construct: Kinases are expressed as either kinase domains or full length constructs; made in house
In words: Kinase inhibition assay (33P transfer), Tek. As to conditions: read-out: Tek-1. From the text: The inhibitor compounds described herein are screened in the following manner. Kinases suitable for use in the following protocol to determine kinase activity of the compounds described herein include, -but are not limited to: Lck, Lyn, Src, Fyn, Syk, Zap-70, Itk, Tec, Btk, EGFR, ErbB2, Kdr, Flt-1, Flt-3, Tek, c-Met, InsR, and AKT.
Kinases are expressed as either kinase domains or full length constructs fused to glutathione S-transferase (GST) or polyHistidine tagged fusion proteins in either E. colior Baculovirus-High Five expression systems. They are purified to near homogeneity by affinity chromatography essentially as previously described (Lehr et al., 1996; Gish et al., 1995). In some instances, kinases are co-expressed or mixed with purified or partially purified regulatory polypeptides prior to measurement of activity.
Kinase activity and inhibition are measured essentially by established protocols (Braunwalder et al., 1996). Briefly, The transfer of ^33PO4 from ATP to the synthetic substrates poly(Glu, Tyr) 4:1 or poly(Arg, Ser) 3:1 attached to the bioactive surface of microtiter plates serves as the basis to evaluate enzyme activity. After an incubation period, the amount of phosphate transferred is measured by first washing the plate with 0.5% phosphoric acid, adding liquid scintillant, and then counting in a liquid scintillation detector. The IC50 is determined by the concentration of compound that causes a 50% reduction in the amount of […] incorporated onto the substrate bound to the plate.

The target of another test is T7, c-Met (Homo sapiens, UniProt P08581).
T7 construct: Kinases are expressed as either kinase domains or full length constructs; made in house
In words: Kinase inhibition assay (33P transfer), c-Met. As to conditions: Table 2, kinase inhibition class; read-out: Met-1. An outline of the steps: as §2

A further test has as its target T8, AKT (Homo sapiens, UniProt Q9Y243).
T8 construct: Kinases are expressed as either kinase domains or full length constructs; made in house
In words: Kinase inhibition assay (33P transfer), AKT. The following applies: Table 2, kinase inhibition class; read-out: AKT3-1. The procedure, abridged:
as §1

The structures appear in SMILES notation. Like-named read-outs stand apart in the source and are kept apart here. Bounds are passed on as bounds.

T7 sequence (P08581 25-1390): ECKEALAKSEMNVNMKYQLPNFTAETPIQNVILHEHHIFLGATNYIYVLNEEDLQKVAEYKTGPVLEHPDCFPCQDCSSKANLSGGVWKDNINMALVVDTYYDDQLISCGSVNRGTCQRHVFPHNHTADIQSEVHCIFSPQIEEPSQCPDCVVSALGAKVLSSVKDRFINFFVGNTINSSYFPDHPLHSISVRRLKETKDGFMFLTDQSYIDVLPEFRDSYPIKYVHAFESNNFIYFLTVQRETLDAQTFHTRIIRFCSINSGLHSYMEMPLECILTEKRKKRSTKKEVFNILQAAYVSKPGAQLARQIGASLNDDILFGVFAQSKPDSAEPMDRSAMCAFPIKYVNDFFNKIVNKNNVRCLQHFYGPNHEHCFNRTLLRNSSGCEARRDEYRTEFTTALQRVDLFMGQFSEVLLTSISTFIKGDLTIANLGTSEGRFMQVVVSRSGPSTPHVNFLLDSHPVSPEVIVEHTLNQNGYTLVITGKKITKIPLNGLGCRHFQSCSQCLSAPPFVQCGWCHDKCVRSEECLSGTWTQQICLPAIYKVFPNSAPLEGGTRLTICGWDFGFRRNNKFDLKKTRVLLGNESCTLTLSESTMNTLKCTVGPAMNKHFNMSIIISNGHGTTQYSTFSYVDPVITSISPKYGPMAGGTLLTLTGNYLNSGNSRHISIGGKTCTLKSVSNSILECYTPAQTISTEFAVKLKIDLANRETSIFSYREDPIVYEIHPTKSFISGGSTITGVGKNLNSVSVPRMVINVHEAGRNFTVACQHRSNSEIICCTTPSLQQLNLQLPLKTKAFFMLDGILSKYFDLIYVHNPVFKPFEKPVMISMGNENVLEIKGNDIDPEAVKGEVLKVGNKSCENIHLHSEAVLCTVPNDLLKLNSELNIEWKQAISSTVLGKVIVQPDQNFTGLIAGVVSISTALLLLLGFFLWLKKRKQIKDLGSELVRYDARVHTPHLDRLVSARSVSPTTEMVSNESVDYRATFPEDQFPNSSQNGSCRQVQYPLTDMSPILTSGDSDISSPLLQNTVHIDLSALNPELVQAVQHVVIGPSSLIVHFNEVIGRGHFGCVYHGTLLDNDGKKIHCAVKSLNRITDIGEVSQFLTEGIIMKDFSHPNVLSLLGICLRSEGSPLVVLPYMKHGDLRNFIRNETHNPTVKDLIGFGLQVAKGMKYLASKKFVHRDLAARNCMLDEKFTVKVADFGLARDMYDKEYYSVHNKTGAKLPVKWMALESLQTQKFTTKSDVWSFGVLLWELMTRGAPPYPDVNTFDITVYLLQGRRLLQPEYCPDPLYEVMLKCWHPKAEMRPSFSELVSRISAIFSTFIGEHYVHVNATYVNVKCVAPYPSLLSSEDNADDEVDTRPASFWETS
T5 sequence (P35968 20-1356, species assumed): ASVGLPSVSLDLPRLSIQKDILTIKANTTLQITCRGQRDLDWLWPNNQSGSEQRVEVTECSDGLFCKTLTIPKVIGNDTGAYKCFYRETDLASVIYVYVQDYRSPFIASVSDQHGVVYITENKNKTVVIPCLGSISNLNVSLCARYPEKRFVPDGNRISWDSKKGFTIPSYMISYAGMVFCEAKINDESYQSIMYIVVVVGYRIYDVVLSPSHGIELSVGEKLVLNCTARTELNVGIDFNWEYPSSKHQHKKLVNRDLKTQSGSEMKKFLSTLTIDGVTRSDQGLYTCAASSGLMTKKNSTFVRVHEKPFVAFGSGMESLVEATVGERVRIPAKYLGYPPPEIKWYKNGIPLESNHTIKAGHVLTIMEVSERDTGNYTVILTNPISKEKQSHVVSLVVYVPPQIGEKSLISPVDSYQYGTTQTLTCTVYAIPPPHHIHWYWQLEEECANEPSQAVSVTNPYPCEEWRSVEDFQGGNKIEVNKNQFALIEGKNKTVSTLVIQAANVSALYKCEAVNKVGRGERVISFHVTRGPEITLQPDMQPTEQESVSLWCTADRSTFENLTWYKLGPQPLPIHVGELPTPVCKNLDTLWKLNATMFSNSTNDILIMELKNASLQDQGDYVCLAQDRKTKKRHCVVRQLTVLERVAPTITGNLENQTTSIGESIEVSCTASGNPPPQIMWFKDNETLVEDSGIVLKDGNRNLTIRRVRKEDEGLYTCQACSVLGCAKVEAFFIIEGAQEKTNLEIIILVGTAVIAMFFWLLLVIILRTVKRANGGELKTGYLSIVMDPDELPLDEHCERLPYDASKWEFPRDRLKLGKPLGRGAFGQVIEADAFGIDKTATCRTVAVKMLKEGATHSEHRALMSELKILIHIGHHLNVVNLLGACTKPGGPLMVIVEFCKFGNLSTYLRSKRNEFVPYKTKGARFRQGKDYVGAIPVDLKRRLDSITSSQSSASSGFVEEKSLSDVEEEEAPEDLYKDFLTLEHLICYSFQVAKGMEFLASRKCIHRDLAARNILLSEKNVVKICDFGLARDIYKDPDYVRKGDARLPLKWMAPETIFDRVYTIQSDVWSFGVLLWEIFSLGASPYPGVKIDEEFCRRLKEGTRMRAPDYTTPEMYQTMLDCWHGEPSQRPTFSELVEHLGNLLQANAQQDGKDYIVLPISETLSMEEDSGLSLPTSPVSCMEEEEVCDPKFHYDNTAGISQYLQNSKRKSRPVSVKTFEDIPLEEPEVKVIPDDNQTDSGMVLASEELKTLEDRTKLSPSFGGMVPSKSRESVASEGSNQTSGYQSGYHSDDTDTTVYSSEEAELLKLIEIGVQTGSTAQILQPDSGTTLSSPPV
T1 sequence (P06239 whole entry, species assumed, the tested form may be a part): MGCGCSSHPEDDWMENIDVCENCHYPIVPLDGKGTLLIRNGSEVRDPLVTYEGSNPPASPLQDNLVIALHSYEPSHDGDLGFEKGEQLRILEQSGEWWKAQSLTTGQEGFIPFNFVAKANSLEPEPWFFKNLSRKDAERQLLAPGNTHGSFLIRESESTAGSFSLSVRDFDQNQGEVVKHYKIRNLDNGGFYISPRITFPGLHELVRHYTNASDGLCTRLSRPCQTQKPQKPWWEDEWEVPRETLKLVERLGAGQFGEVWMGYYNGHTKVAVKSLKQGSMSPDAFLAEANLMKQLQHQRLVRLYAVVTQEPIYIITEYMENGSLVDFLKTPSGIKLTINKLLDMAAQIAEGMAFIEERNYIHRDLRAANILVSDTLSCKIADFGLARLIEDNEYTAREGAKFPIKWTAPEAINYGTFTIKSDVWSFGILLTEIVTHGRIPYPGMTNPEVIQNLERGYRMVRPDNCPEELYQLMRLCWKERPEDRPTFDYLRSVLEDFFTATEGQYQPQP
T8 sequence (Q9Y243 whole entry, the tested form may be a part): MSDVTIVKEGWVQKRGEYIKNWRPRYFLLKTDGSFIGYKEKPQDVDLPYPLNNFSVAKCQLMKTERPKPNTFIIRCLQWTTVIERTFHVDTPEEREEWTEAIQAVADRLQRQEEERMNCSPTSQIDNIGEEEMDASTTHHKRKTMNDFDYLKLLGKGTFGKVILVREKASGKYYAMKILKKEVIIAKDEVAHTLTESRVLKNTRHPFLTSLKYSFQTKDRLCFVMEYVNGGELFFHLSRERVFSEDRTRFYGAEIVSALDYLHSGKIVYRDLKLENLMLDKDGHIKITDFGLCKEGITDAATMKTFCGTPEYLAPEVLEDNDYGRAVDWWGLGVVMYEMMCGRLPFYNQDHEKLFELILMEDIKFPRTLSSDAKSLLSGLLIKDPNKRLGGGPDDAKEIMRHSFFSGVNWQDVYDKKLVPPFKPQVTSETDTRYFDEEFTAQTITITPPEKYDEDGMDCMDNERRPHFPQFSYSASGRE
T6 sequence (Q02763 23-1124, species assumed): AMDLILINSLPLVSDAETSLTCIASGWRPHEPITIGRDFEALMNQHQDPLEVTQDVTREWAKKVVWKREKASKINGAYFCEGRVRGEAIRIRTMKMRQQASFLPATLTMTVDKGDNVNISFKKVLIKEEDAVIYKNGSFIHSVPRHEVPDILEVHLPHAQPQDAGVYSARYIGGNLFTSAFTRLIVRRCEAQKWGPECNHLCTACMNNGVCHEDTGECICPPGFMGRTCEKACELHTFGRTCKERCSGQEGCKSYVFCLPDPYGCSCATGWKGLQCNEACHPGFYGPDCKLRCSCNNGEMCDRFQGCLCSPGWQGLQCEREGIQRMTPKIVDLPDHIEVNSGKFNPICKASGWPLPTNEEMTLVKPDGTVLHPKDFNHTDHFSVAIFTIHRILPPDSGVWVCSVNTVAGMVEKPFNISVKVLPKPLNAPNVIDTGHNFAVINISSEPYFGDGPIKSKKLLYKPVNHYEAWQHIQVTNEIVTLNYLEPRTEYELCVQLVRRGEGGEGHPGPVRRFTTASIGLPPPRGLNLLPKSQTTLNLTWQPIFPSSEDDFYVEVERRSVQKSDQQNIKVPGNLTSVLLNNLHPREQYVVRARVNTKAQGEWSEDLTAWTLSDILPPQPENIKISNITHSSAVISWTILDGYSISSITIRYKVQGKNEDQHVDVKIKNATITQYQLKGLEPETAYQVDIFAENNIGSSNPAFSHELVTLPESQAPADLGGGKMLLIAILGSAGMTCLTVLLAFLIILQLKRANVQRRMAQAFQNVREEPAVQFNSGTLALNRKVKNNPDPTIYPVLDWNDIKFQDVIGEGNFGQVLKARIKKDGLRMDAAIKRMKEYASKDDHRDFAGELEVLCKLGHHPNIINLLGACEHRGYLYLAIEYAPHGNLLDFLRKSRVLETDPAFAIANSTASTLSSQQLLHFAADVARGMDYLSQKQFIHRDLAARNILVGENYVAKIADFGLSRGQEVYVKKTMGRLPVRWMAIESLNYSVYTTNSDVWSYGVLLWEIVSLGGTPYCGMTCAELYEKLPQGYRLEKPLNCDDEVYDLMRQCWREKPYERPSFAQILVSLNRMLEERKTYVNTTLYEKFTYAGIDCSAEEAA

Turning to `O=c1[nH]c2ccccc2n1-c1ncnc(Nc2cccc([N+](=O)[O-])c2)n1` [Compound 467], the IC50 was greater than 12.9 µM at Lck (Table 3); 6.87 to 10 µM on Zap-70 (Table 3); greater than 12.9 µM at Itk (Table 3); greater than 12.9 µM on EGFR; 1.15 to 6.87 µM on Kdr (Table 3); 6.87 to 10 µM at Tek. Also, the IC50 on c-Met and on AKT was greater than 12.9 µM in each case.
With `Nc1nc2ccccc2n1-c1ncnc(Nc2ccc(Cl)cc2)n1` [Compound 478], the IC50 at Lck, on Zap-70, on Itk, on EGFR, at Kdr and on Tek was 1.18 to 7.11 µM each time. Also, the IC50 at c-Met and at AKT was 1.18 to 7.11 µM each time.
With `Nc1nc2ccccc2n1-c1ncnc(Nc2ccc(-c3ccccc3)cc2)n1` [Compound 480], the IC50 at Lck fell in the range of 1.05 to 6.33 µM; on Zap-70, 1.05 to 6.33 µM; on Itk, 9.22 to 11.9 µM; at EGFR, 1.05 to 6.33 µM; at Kdr, 1.05 to 6.33 µM; on Tek it was 1.05 to 6.33 µM. Further, the IC50 at c-Met and on AKT was 1.05 to 6.33 µM each time.
With `O=c1[nH]c2ccccc2n1-c1ncnc(Nc2ccc(Br)c(Cl)c2)n1` [Compound 483], the IC50 is 5.75 to 8.38 µM at Lck; 0.958 to 5.75 µM at Zap-70; greater than 10.8 µM on Itk; 0.958 to 5.75 µM on EGFR; 0.958 to 5.75 µM at Kdr; 0.958 to 5.75 µM at Tek. Further, the IC50 on c-Met and at AKT was greater than 10.8 µM each time.
`COc1cc(OC)nc(Nc2ncnc(-n3c(=O)[nH]c4ccccc43)n2)n1` [Compound 491]: the IC50 on Lck was greater than 12.3 µM; on Zap-70, greater than 12.3 µM; at Itk, greater than 12.3 µM; at EGFR, greater than 12.3 µM; at Kdr it was 9.55 to 12.3 µM; at Tek, 1.09 to 6.55 µM. In addition, the IC50 at c-Met and on AKT was greater than 12.3 µM in each case.
As to `O=c1[nH]c2ccccc2n1-c1ncnc(Nc2ccncn2)n1` [Compound 492], the IC50 was greater than 14.7 µM at Lck; 11.4 to 14.7 µM on Zap-70; greater than 14.7 µM on Itk; 7.84 to 11.4 µM on EGFR; 7.84 to 11.4 µM on Kdr; 7.84 to 11.4 µM at Tek. Also, the IC50 is 7.84 to 11.4 µM at c-Met and greater than 14.7 µM on AKT.
With `O=c1[nH]c2ccccc2n1-c1ncnc(Nc2ccccc2[N+](=O)[O-])n1` [Compound 493], the IC50 was greater than 12.9 µM at Lck; greater than 12.9 µM on Zap-70; greater than 12.9 µM on Itk; greater than 12.9 µM at EGFR; greater than 12.9 µM at Kdr; 6.87 to 10 µM on Tek. The values for the IC50 at c-Met and at AKT were 10 to 12.9 µM and greater than 12.9 µM, respectively.
In the case of `COc1ccc(Nc2ncnc(-n3c(=O)[nH]c4ccccc43)n2)cc1OC` [Compound 494], the IC50 is 6.59 to 9.61 µM on Lck; greater than 12.4 µM on Zap-70; greater than 12.4 µM at Itk; 6.59 to 9.61 µM at EGFR; less than 1.1 µM at Kdr; greater than 12.4 µM on Tek. For the same compound, the IC50 at c-Met and on AKT was greater than 12.4 µM in each case.
As to `COc1cc(Nc2ncnc(Nc3cc(-c4cccc(Cl)c4)n[nH]3)n2)cc(OC)c1OC` [Compound 495], the IC50 is 5.29 to 7.71 µM at Lck; greater than 9.91 µM on Zap-70; greater than 9.91 µM at Itk; 0.881 to 5.29 µM on EGFR; 7.71 to 9.91 µM on Kdr; greater than 9.91 µM on Tek. In addition, the IC50 on c-Met is 0.881 to 5.29 µM; on AKT, greater than 9.91 µM.
`COc1cc(Nc2ncnc(-c3ccc(NCCCO)nc3)n2)cc(OC)c1OC` [Compound 497]: the IC50 at Lck is 8.49 to 10.9 µM; at Zap-70 it was greater than 10.9 µM; at Itk, greater than 10.9 µM; on EGFR, greater than 10.9 µM; on Kdr, less than 0.97 µM; at Tek, greater than 10.9 µM. Further, the IC50 on c-Met and at AKT was greater than 10.9 µM in each case.
Turning to `O=c1[nH]c2ccccc2n1-c1ncnc(Nc2ccc(Cl)cc2Cl)n1` [Compound 504], the IC50 was greater than 12.1 µM at Lck; greater than 12.1 µM on Zap-70; greater than 12.1 µM at Itk; greater than 12.1 µM on EGFR; greater than 12.1 µM on Kdr; 1.07 to 6.43 µM on Tek. The IC50 on c-Met and on AKT was greater than 12.1 µM in each case.
Consider `O=c1[nH]c2ccccc2n1-c1ncnc(Nc2ccc(C(F)(F)F)cc2)n1` [Compound 505], for which the IC50 on Lck is greater than 12.1 µM; at Zap-70, 9.4 to 12.1 µM; at Itk it was greater than 12.1 µM; at EGFR, greater than 12.1 µM; at Kdr, greater than 12.1 µM; on Tek, 6.45 to 9.4 µM. In addition, the IC50 at c-Met and at AKT was greater than 12.1 µM in each case.
For `O=c1[nH]c2ccccc2n1-c1ncnc(Nc2cc(C(F)(F)F)cc(C(F)(F)F)c2)n1` [Compound 506], the IC50 at Lck is 7.95 to 10.2 µM; on Zap-70 it was greater than 10.2 µM; at Itk, greater than 10.2 µM; at EGFR it was greater than 10.2 µM; on Kdr, greater than 10.2 µM; on Tek, 5.45 to 7.95 µM. The IC50 at c-Met and on AKT was greater than 10.2 µM throughout.
For `COc1cc(Nc2ncnc(-n3c(NCc4ccccn4)nc4ccccc43)n2)cc(OCCN2CCOCC2)c1OC` [Compound 507], the IC50 on Lck was 0.685 to 4.11 µM; on Zap-70, greater than 7.71 µM; on Itk it was greater than 7.71 µM; on EGFR, greater than 7.71 µM; on Kdr, less than 0.685 µM; at Tek, 6 to 7.71 µM. In addition, the IC50 on c-Met and on AKT was greater than 7.71 µM in each case.
On to `O=c1[nH]c2ccccc2n1-c1ncnc(Nc2cnc3ccccc3c2)n1` [Compound 508], for which the IC50 on Lck is 1.13 to 6.75 µM; on Zap-70, greater than 12.7 µM; on Itk, 6.75 to 9.85 µM; on EGFR, greater than 12.7 µM; on Kdr, 1.13 to 6.75 µM; on Tek it was 6.75 to 9.85 µM. The IC50 on c-Met and on AKT was greater than 12.7 µM in each case.
